Experimental data published in patent publication US5719287A, “Intermediates for inhibitors of HIV protease and method of preparation thereof” (Eli Lilly and Company, priority 1995, dated 1998).

What follows are molecules tested against T1, HIV-1 protease (Human immunodeficiency virus type 1 group M subtype B, UniProt P04585) (assay: biochemical). Conditions: purified HIV-1 protease, MES-ALB buffer pH 5.5; 1 h preincubation, 16 h with substrate, room temperature; IC50 values for Examples 2-70 are standardized relative to Ex 1; read-out: Fluorescence Assay IC50 (converted).
T1 construct: Purified HIV-1 protease was obtained as described below; made in house; host or cells: E. coli K12 L507/pHP10D (NRRL B-18560)
Description: N^α -Biotin-[…]Ne-FITC)-OH
The purified peptide was labeled as follows with a fluorescent marker at the C-terminal end for use in the assay. N^α -Biotin-Gly-Ser-Gln-Asn-Tyr-Pro-lle-Val-Gly-Lys-OH (1.206 g, 0.936 mmoles) was dissolved in 100 mL of 0.1M sodium borate, pH 9.5 with stirring. Then, 3 g of fluorescein isothiocyanate (7.7 mmol) was dissolved in 15 mL dimethyl sulfoxide and the solution added to the reaction in 10 equal portions over the course of a two hour period. The reaction was allowed to proceed for a further one hour after the final addition had been made. The pH of the solution was adjusted to 3 with 5N HCl. A precipitate formed which was removed from the reaction by centrifugation.
Fluorescence HIV-1 Protease Inhibitor Assay Procedure.
To each well of a round bottom, 96-well plate is added 20 μl of the Enzyme Solution followed by 10 μl of the compound to be evaluated in 20% aqueous DMSO. Purified HIV-1 protease was obtained as described below. The solution is incubated for one hour at room temperature and then 20 μl of a solution of the substrate N^α -Biotin-[…]N^e -FITC)-OH, in MES-ALB buffer (1.5 μl/ml) is added to each well. The solutions are incubated for 16 hours at room temperature and thereafter to each well is added 150 μl of MES-ALB buffer.
To each well of a 96-well Pandex plate is added 25 μl of the Avidin Coated Beads Solution. Next, 25 μl of the diluted incubation solutions, described above, are added to each well of the Pandex plate. The solutions are mixed well and the plates are loaded into a Pandex® machine, washed, evacuated and read. Sample detection was performed by excitation at 485 nm and reading the resulting epifluorescence at 535 nm.
A culture of E. coli K12 L507/pHP10D was grown to mid-log phase at 32° C. in LB media containing 12.5 μg/ml tetracycline. The cultivation temperature was quickly elevated to 40° C. to induce gene expression, and the cells were allowed to grow for 2.5 hours at this temperature before the culture was quickly chilled on ice. The cells were centrifuged and the cell pellet was resuspended in 20 ml 50 mmol MES buffer (pH 6.0) containing 1 mmol EDTA, 1 mmol DTT, 1 mmol PMSF, and 10% glycerol (Buffer A). Cells were lysed by sonication using a Fischer Model 300 Dismembrator and a microtip probe. […] Enzymatic activity was measured by HPLC using the synthetic peptide SQNYPIV as described in Margolin et al., Biochem. Biophys. Res. Commun., 167, 554-560 (1990); the production of the pl peptide (SQNY) was measured.
Active fractions were pooled, made 1.2M in ammonium sulfate, and applied to a hexyl agarose column (2.0×18 cm) equilibrated in Buffer A containing 1.2M ammonium sulfate. The sample, in 125 ml (1.85 mg/ml), was loaded at a flow rate of 1 ml/min at 4° C. […] The column was then washed isocratically in Buffer A for 120 min. Active fractions were pooled, concentrated to 10 ml using an Amicon stirred cell with a YM-10 membrane, and applied at 1 ml/min to a MonoS cation exchange column (1.0×10 cm) equilibrated in Buffer A. After washing isocratically for 30 min, protease was eluted using a linear gradient of 0-0.45M NaCl in Buffer A over 40 min followed by an isocratic wash with Buffer A containing 0.45M NaCl over 30 min. Chromatography was performed at 25° C.
Pooled active fractions were concentrated to 200 ul using an Amicon stirred cell and a YM-10 membrane, and the protease was then applied to a Superose 6 size exclusion column equilibrated in Buffer A containing 0.1M NaCl. The column was washed isocratically in this buffer at a flow rate of 0.5 ml/min.
`CC(C)[C@H](NC(=O)c1cnc2ccccc2n1)C(=O)N[C@@H](Cc1ccccc1)[C@H](O)Cc1ccccc1C(=O)NC(C)(C)C` [Example 34, [1S-(1R*, 4R*, 5S*)]-N-(1-(1-methylethyl)-2-oxo-3-aza-4-phenylmethyl-5-hydroxy-6-(2-(1-t-butylamino-1-oxomethyl)phenyl)hexyl)-2-quinoxalinyl acetamide] gave an IC50 of 7.55 nM.
Molecule `CC(C)[C@H](NC(=O)c1ccc2ccccc2c1)C(=O)N[C@@H](Cc1ccccc1)[C@H](O)Cc1ccccc1C(=O)NC(C)(C)C` [Example 35] has an IC50 of 131 nM.

Same assay, conditions: read-out: Fluorescence Assay IC50 (converted)
`CC(C)(C)NC(=O)c1ccccc1C[C@@H](O)[C@H](Cc1ccccc1)NC(=O)[C@H](CC(N)=O)NC(=O)c1ccccc1` [Example 28, [1S-(1R*, 4R*, 5S*)]-N-(1-(2-amino-2-oxoethyl)-2-oxo-3-aza-4-phenylmethyl-5-hydroxy-6-(2-(1-t-butylamino-1-oxomethyl)phenyl)hexyl)phenyl carboxamide] gave an IC50 of 12.5 nM.
`CC(C)(C)NC(=O)c1ccccc1C[C@@H](O)[C@H](Cc1ccccc1)NC(=O)[C@H](CC(N)=O)NC(=O)c1ccccn1` [Example 29, [1S-(1R*, 4R*, 5S*)]-N-(1-(2-amino-2-oxoethyl)-2-oxo-3-aza-4-phenylmethyl-5-hydroxy-6-(2-(1-t-butylamino-1-oxomethyl)phenyl)hexyl)-2-pyridyl carboxamide] gave an IC50 of 129 nM.
`CC(C)(C)NC(=O)c1ccccc1C[C@@H](O)[C@H](Cc1ccccc1)NC(=O)[C@H](CC(N)=O)NC(=O)c1cc2ccccc2cn1` [Example 30, [1S-(1R*, 4R*, 5S*)]-N-(1-(2-amino-2-oxoethyl)-2-oxo-3-aza-4-phenylmethyl-5-hydroxy-6-(2-(1-t-butylamino-1-oxomethyl)phenyl)hexyl)-3-isoquinolinyl carboxamide] gave an IC50 of 11.8 nM.
`CC(C)(C)NC(=O)c1ccccc1C[C@@H](O)[C@H](Cc1ccccc1)NC(=O)[C@H](CC(N)=O)NC(=O)Cc1ccc2ccccc2c1` [Example 31, [1S-(1R*, 4R*, 5S*)]-N-(1-(2-amino-2-oxoethyl)-2-oxo-3-aza-4-phenylmethyl-5-hydroxy-6-(2-(1-t-butylamino-1-oxomethyl)phenyl)hexyl)-2-naphthyl acetamide] was tested, and the IC50 was 11.4 nM.
In the case of `CC(C)(C)NC(=O)c1ccccc1C[C@@H](O)[C@H](Cc1ccccc1)NC(=O)[C@H](CC(N)=O)NC(=O)COc1ccc2ccccc2n1` [Example 32, [1S-(1R*, 4R*, 5S*)]-N-(1-(2-amino-2-oxoethyl)-2-oxo-3-aza-4-phenylmethyl-5-hydroxy-6-(2-(1-t-butylamino-1-oxomethyl)phenyl)hexyl)-2-quinolinoxy acetamide], the IC50 is reported as 3.75 nM.
In the case of `CCC(C)[C@H](NC(=O)OCc1ccc2ccccc2n1)C(=O)N[C@@H](Cc1ccccc1)[C@H](O)Cc1ccccc1C(=O)NC(C)(C)C` (stereo partly drawn) [Example 38, [2R-(2R*, 3S*, 6S*)]-N-t-butyl-2-(2-hydroxy-3-phenylmethyl-4-aza-5-oxo-6-(1-methylpropyl)-6-(N-quinolin-2-ylmethoxycarbonylamino)hexyl)benzamide], the IC50 is reported as 1.21 nM.
With `CCC(C)[C@H](NC(=O)N(C)Cc1ccc2ccccc2n1)C(=O)N[C@@H](Cc1ccccc1)[C@H](O)Cc1ccccc1C(=O)NC(C)(C)C` (stereo partly drawn) [Example 39, [2R-(2R*, 3S*, 6S*)]-N-t-butyl-2-(2-hydroxy-3-phenylmethyl-4-aza-5-oxo-6-(1-methylpropyl)-7-aza-8-oxo-8-(N-methyl-N-quinolin-2-ylmethylamino)octyl)benzamide] the IC50 was 5.06 nM.
Work on `CC(C)(C)NC(=O)c1occc1C[C@@H](O)[C@H](Cc1ccccc1)NC(=O)[C@H](CC(N)=O)NC(=O)c1ccc2ccccc2n1` [Example 40, [1S-(1R*, 4R*, 5S*)]-N-(1-(2-amino-2-oxoethyl)-2-oxo-3-aza-4-phenylmethyl-5-hydroxy-6-(2-(1-t-butylamino-1-oxomethyl)fur-3-yl)hexyl)-2-quinolinyl carboxamide] yielded an IC50 of 46.7 nM.
Molecule `CC(C)(C)NC(=O)c1sccc1C[C@@H](O)[C@H](Cc1ccccc1)NC(=O)[C@H](CC(N)=O)NC(=O)c1ccc2ccccc2n1` [Example 41, [1S-(1R*, 4R*. 5S*) ]-N-(1-(2-amino-2-oxoethyl)-2-oxo-3-aza-4-phenylmethyl-5-hydroxy-6-(2-(1-t-butylamino-1-oxomethyl)thien-3-yl)hexyl)-2-quinolinyl carboxamide] has an IC50 of 13 nM.
`CC(C)(C)NC(=O)c1oc2ccccc2c1C[C@@H](O)[C@H](Cc1ccccc1)NC(=O)[C@H](CC(N)=O)NC(=O)c1ccc2ccccc2n1` [Example 42, [1S-(1R*, 4R*, 5S*)]-N-(1-(2-amino-2-oxoethyl)-2-oxo-3-aza-4-phenylmethyl-5-hydroxy-6-(2-(1-t-butylamino-1-oxomethyl)benzofur-3-yl)hexyl)-2-quinolinyl carboxamide] showed an IC50 of 523 nM.
`CC(C)(C)NC(=O)c1ccccc1C[C@@H](O)[C@H](Cc1ccccc1)NC(=O)[C@H](CC(=O)O)NC(=O)c1ccc2ccccc2n1` [Example 43, [1S-(1R*, 4R*, 5S*)]-N-(1-(2-hydroxy-2-oxoethyl)-2-oxo-3-aza-4-phenylmethyl-5-hydroxy-6-(2-(1-t-butylamino-1-oxomethyl)phenyl)hexyl)-2-quinolinyl carboxamide] gave an IC50 of 2.13 nM.
`CC(C)(C)NC(=O)c1ccccc1C[C@@H](O)[C@H](Cc1ccccc1)NC(=O)[C@H](CCC(=O)O)NC(=O)c1ccc2ccccc2n1` [Example 44, [1S-(1R*, 4R*, 5S*)]-N-(1-(3-hydroxy-3-oxopropyl)-2-oxo-3-aza-4-phenylmethyl-5-hydroxy-6-(2-(1-t-butylamino-1-oxomethyl)phenyl)hexyl)-2-quinolinyl carboxamide] was tested, and the IC50 was 2.08 nM.
`CC(C)(C)NC(=O)c1ccccc1C[C@@H](O)[C@H](Cc1ccccc1)NC(=O)[C@H](CC(=O)NCc1ccccn1)NC(=O)c1ccc2ccccc2n1` [Example 45, [1S-[1R*, 4R*, 5S*)]-N-(1-(2-(N-2-pyridylmethyl)amino)-2-oxoethyl]-2-oxo-3-aza-4-phenylmethyl-5-hydroxy-6-(2-(1-t-butylamino-1-oxomethyl)phenyl)hexyl)-2quinolinyl carboxamide] showed an IC50 of 1.26 nM.
`CC(C)(C)NC(=O)c1ccccc1C[C@@H](O)[C@H](Cc1ccccc1)NC(=O)[C@H](CC(=O)NCc1ncc[nH]1)NC(=O)c1ccc2ccccc2n1` [Example 46, [1S-(1R*, 4R*, 5S*)]-N-(1-(2-(N-2-imidazolylmethyl)amino)-2-oxoethyl)-2-oxo-3-aza-4-phenylmethyl-5-hydroxy-6-(2-(1-t-butylamino-1-oxomethyl)phenyl)hexyl)-2-quinolinyl carboxamide] gave an IC50 of 1.88 nM.
`CC(C)(C)NC(=O)c1ccccc1C[C@@H](O)[C@H](Cc1ccccc1)NC(=O)[C@H](CC(=O)Nc1ccncc1)NC(=O)c1ccc2ccccc2n1` [Example 48, [1S-(1R*, 4R*, 5S*)]-N-(1-(2-(N-pyrid-4-yl)amino)-2-oxoethyl)-2-oxo-3-aza-4-phenylmethyl-5-hydroxy-6-(2-(1-t-butylamino-1-oxomethyl)phenyl)hexyl)-2-quinolinyl carboxamide] showed an IC50 of 1.16 nM.
Work on `CC(C)(C)NC(=O)c1ccccc1C[C@@H](O)[C@H](Cc1ccccc1)NC(=O)[C@H](CC(=O)NCc1nc2ccccc2[nH]1)NC(=O)c1ccc2ccccc2n1` [Example 49, [1S-(1R*, 4R*, 5S*)]-N-(1-(2-(N-2-benzimidazolylmethyl)amino)-2-oxoethyl)-2-oxo-3-aza-4-phenylmethyl-5-hydroxy-6-(2-(1-t-butylamino-1-oxomethyl)phenyl)hexyl)-2-quinolinyl carboxamide] yielded an IC50 of 0.676 nM.
